Reference: patent US10919935B2, “Antimicrobial peptide derived from myxinidin peptide and uses thereof” (INDUSTRY-ACADEMIC COOPERATION FOUNDATION, CHOSUN UNIVERSITY, priority 2015, dated 2021)
Residues, ends and D or L forms follow the SMILES beside them.

Assays:
P. aeruginosa = test: Anti-biofilm activity (crystal violet); type: cell-based, Pseudomonas aeruginosa
Method: To compare the antimicrobial activity of the peptide produced by the method of Example 1, the inventors of the present invention measured the biofilm inhibitory concentration value of the peptide showing no dissociation of bacterial cells.
Specifically, the Gram-negative bacteria and Gram-positive bacteria among the bacterial strains described in the above Table 2 were cultured in each medium to a mid-log phase. Then, after dilution to bacterial cell concentration of 5×10^5 cells/100 μl, the cells were inoculated to a microtiter plate (NUNC, USA). Thereafter, myxinidin 1, myxinidin 2, or myxinidin 3 peptides which have been synthesized in Example 1 above was diluted, 1/10 times for each, with physiological saline (PBS) solution in a 96-well plate. After adding the cells to a plate, the cells were cultured for 12 hours at 37° C. After removing the supernatant, the cells were fixed with 100% methanol and reacted for 2 hours with Crystal violet staining solution followed by rinsing for 3 times. Then, after dissolving in 95% ethanol, the absorbance was measured at a wavelength of 595 nm by using a microtiter plate reader (Merck Elisa reader, Germany) to determine the biofilm inhibitory concentration value of each bacterial strain. As a control group, myxinidin as a mother peptide was subjected to the same processes as above and the biofilm inhibitory concentration value of each bacterial strain was obtained.

[1] = system: Escherichia coli CCARM 1229; type: cell-based
Method: (§1) To compare the antimicrobial activity of the peptide produced by the method of Example 1, the inventors of the present invention measured the growth minimum inhibitory concentration (MIC), which is minimum concentration of the peptide showing no dissociation of bacterial cells.
(§2) Specifically, the bacterial strain described in the following Table 2 was purchased and cultured in each medium to a mid-log phase. Then, after dilution to bacterial cell concentration of 2×10^5 cells/100 μl, the cells were inoculated to a microtiter plate (NUNC, USA). Thereafter, myxinidin 1, myxinidin 2, or myxinidin 3 peptides which have been synthesized in Example 1 above was diluted, 1/2 times for each, with BSA (bovine serum albumin) solution in a 96-well plate. After adding the cells to a plate, the cells were cultured for 12 hours at 37° C. By using a microtiter plate reader (Merck Elisa reader, Germany), the absorbance was measured at a wavelength of 600 nm to determine the MIC value of each bacterial strain. As a control group, myxinidin as a mother peptide was subjected to the same processes as above and the MIC value of each bacterial strain was obtained.

[2] = system: Escherichia coli ATCC 25922; type: cell-based
Method: as §1, §2

[3] = system: Listeria monocytogenes KCTC 3710; type: cell-based
Method: as §1, §2

[4] = system: Pseudomonas aeruginosa Isolated strain 3592; type: cell-based
Method: as §1, §2

[5] = system: Salmonella typhimurium CCARM 8013; type: cell-based
Method: as §1, §2

[6] = system: Staphylococcus aureus ATCC 25923; type: cell-based
Method: as §1, §2

[7] = system: Staphylococcus aureus CCARM 3709; type: cell-based
Method: as §1, §2

[8] = system: Pseudomonas aeruginosa ATCC 27853; type: cell-based
Method: as §1, §2

[9] = system: Salmonella typhimurium CCARM 8009; type: cell-based
Method: as §1, §2

[10] = system: Salmonella typhimurium KCTC 1926; type: cell-based
Method: as §1, §2

[11] = system: Pseudomonas aeruginosa Isolated strain 5018; type: cell-based
Method: as §1, §2

[12] = system: Staphylococcus aureus CCARM 3114; type: cell-based
Method: as §1, §2

[13] = system: Escherichia coli CCARM 1238; type: cell-based
Method: as §1, §2

[14] = system: Acinetobacter baumannii 719705; test: Anti-microbial disk diffusion susceptibility test with gelatin; type: cell-based; conditions: 0.1% gelatin
Description: (§3) FIGS. 4A to 4C show the results of determining the antimicrobial activity when the peptides of the present invention are admixed with gelatin used as a wound moisturizing agent. FIG. 4A: Determination of survival ratio of skin keratinocyte cells in accordance with a change in gelatin concentration; FIG. 4B: Measurement of minimum inhibitory concentration (MIC, μM) of the peptides for Staphylococcus aureus (S. aureus 3018), Acinetobacter baumannii (A. baumannii 719705), and Pseudomonas aeruginosa (P. aeruginosa 4076), in which the result is shown for different gelatin concentrations; FIG. 4C: Result of the anti-microbial disk diffusion susceptibility test carried out for Staphylococcus aureus (S. aureus 3018), Acinetobacter baumannii (A. baumannii 719705), and Pseudomonas aeruginosa (P. aeruginosa 4076), in which the result is shown for different peptide concentrations and also for the presence or absence of gelatin co-blending.
(§4) To specifically determine the antimicrobial activity at the time of mixing the synthetic peptide of the present invention with gelatin, myxinidin 2 and myxinidin 3 synthetic peptides were admixed with 0.1% gelatin. Furthermore, to determine the antimicrobial activity, a minimum inhibitory concentration measurement and an anti-microbial disk diffusion susceptibility test as an agar diffusion method were carried out for Acinetobacter baumannii, Pseudomonas aeruginosa, and Staphylococcus aureus.
(§5) Specifically, cultured Acinetobacter baumannii, Pseudomonas aeruginosa, and Staphylococcus aureus were diluted to a concentration of 2×10^5 cells/ml, admixed with a solution in which 0.1% gelatin is mixed with 1% agarose, and cultured. To see the antimicrobial activity, the peptide was applied on a 6 mm round disk, in which the peptide was applied at various different concentrations, and the diffusion level was measured.

[15] = system: Staphylococcus aureus 3018; test: as above; type: cell-based; conditions: 0.1% gelatin
Description: as §3, §4, §5

[16] = system: Pseudomonas aeruginosa 4076; test: as above; type: cell-based; conditions: 0.1% gelatin
Description: as §3, §4, §5

Row | Compound | Biofilm forming ability (P. aeruginosa; peptide 0.25 μM) | Biofilm forming ability (P. aeruginosa; peptide 0.5 μM) | Biofilm forming ability (P. aeruginosa; peptide 1 μM) | Biofilm forming ability (P. aeruginosa; peptide 2 μM) | Biofilm forming ability (P. aeruginosa; peptide 4 μM) | Biofilm forming ability (P. aeruginosa; peptide 8 μM) | Biofilm forming ability (P. aeruginosa; peptide 16 μM) | Biofilm forming ability (P. aeruginosa; peptide 32 μM) | Minimum growth inhibitory concentration [1] | Minimum growth inhibitory concentration [2] | Minimum growth inhibitory concentration [3] | Minimum growth inhibitory concentration [4] | Minimum growth inhibitory concentration [5] | Minimum growth inhibitory concentration [6] | Minimum growth inhibitory concentration [7] | Minimum growth inhibitory concentration [8] | Minimum growth inhibitory concentration [9] | Minimum growth inhibitory concentration [10] | Minimum growth inhibitory concentration [11] | Minimum growth inhibitory concentration [12] | further results
1 | CC[C@H](C)[C@H](NC(=O)[C@H](Cc1c[nH]c2ccccc12)NC(=O)[C@H](CCCCN)NC(=O)[C@@H](NC(=O)[C@@H](N)CCCCN)[C@@H](C)CC)C(=O)N[C@@H](CC(C)C)C(=O)N[C@@H](CCCCN)C(=O)N[C@@H](Cc1ccc(O)cc1)C(=O)N[C@@H](Cc1c[nH]c2ccccc12)C(=O)N[C@@H](CCCCN)C(=O)N[C@@H](Cc1c[nH]c2ccccc12)C(=O)N[C@@H](CO)C(N)=O [Myxinidin 2, KIKWILKYWKWS-NH2] (H-KIKWILKYWKWS-NH2; N-terminus assumed) | 100% | 98% | 95% | 83% | 29% | 13% | 5% | 5% | 2 µM | 1 µM | 4 µM | 8 µM | 16 µM | 0.25 µM | 2 µM | 4 µM | 8 µM | 2 µM | 4 µM | 32 µM | Minimum growth inhibitory concentration [13]: 4 µM; Antimicrobial activity with gelatin (disk diffusion) [14]: the antimicrobial activity was maintained; Antimicrobial activity with gelatin (disk diffusion) [15]: a similar antimicrobial activity was maintained; Antimicrobial activity with gelatin (disk diffusion) [16]: exhibited the antimicrobial activity
2 | CC[C@H](C)[C@H](NC(=O)CN)C(=O)N[C@@H](Cc1c[nH]cn1)C(=O)N[C@@H](Cc1c[nH]cn1)C(=O)N[C@H](C(=O)N[C@@H](CC(C)C)C(=O)N[C@@H](CCCCN)C(=O)N[C@@H](Cc1ccc(O)cc1)C(=O)NCC(=O)N[C@@H](CCCCN)C(=O)N1CCC[C@H]1C(=O)N[C@@H](CO)C(N)=O)[C@@H](C)CC [Myxinidin 1, GIHHILKYGKPS-NH2] (H-GIHHILKYGKPS-NH2; N-terminus assumed) | 100% | 100% | 94% | 93% | 92% | 92% | 89% | 88% | >32 µM | >32 µM | >32 µM | >32 µM | >32 µM | >32 µM | >32 µM | >32 µM | >32 µM | >32 µM | >32 µM | >32 µM | Minimum growth inhibitory concentration [13]: >32 µM
3 | CC[C@H](C)[C@H](NC(=O)[C@H](Cc1c[nH]c2ccccc12)NC(=O)[C@H](CCCNC(=N)N)NC(=O)[C@@H](NC(=O)[C@@H](N)CCCNC(=N)N)[C@@H](C)CC)C(=O)N[C@@H](CC(C)C)C(=O)N[C@@H](CCCNC(=N)N)C(=O)N[C@@H](Cc1ccc(O)cc1)C(=O)N[C@@H](Cc1c[nH]c2ccccc12)C(=O)N[C@@H](CCCNC(=N)N)C(=O)N[C@@H](Cc1c[nH]c2ccccc12)C(=O)N[C@@H](CO)C(N)=O [Myxinidin 3, RIRWILRYWRWS-NH2] (H-RIRWILRYWRWS-NH2; N-terminus assumed) | 100% | 97% | 97% | 64% | 8% | 7% | 7% | 7% | 1 µM | 0.5 µM | 1 µM | 8 µM | 4 µM | 0.25 µM | 2 µM | 2 µM | 4 µM | 1 µM | 8 µM | 8 µM | Minimum growth inhibitory concentration [13]: 2 µM; Antimicrobial activity with gelatin (disk diffusion) [14]: exhibited a slightly higher antimicrobial activity when the treatment is made only with the peptide; Antimicrobial activity with gelatin (disk diffusion) [15]: a similar antimicrobial activity was maintained; Antimicrobial activity with gelatin (disk diffusion) [16]: exhibited the antimicrobial activity
